We go through three compounds from publication PMC4457528, “Identification of Novel Small Molecule Inhibitors of Oncogenic RET Kinase” (PLoS ONE, 2015).

What all share (assay): KinomeScan kinase panel, single concentration 10 µM
Common to all, as to type: binding

The target of assay [1] is T1, KinomeScan kinase panel (Homo sapiens, UniProt P07949, M918T).
T1 construct: purchased DiscoveRx (KinomeScan)
Particulars: read-out: score (%).

Assay [2] has as its target T2, KinomeScan kinase panel (Homo sapiens, UniProt P78368).
T2 construct: purchased DiscoveRx (KinomeScan)
Particulars: CSNK1G2, 10 µM.

In assay [3] the target is T3, KinomeScan kinase panel (Homo sapiens, UniProt P36507).
T3 construct: purchased DiscoveRx (KinomeScan)
T3 sequence (P36507 whole entry): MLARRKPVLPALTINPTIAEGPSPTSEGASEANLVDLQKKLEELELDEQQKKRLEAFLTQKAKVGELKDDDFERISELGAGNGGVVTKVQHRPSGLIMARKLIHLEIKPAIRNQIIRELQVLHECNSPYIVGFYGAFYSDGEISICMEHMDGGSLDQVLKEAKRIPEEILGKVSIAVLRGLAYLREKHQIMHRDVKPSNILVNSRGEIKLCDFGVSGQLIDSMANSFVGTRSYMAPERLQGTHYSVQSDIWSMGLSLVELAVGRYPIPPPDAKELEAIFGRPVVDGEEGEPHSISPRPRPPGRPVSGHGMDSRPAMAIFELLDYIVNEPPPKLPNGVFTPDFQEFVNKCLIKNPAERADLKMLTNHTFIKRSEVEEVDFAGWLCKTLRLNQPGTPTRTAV
Particulars: MEK2, 10 µM; read-out: score (%).

Assay [4] has as its target T4, KinomeScan kinase panel (Homo sapiens, UniProt P00519, Q252H).
T4 construct: purchased DiscoveRx (KinomeScan)
Particulars: 10 µM, read-out: score (%).

Assay [5] addresses T5, KinomeScan kinase panel (Homo sapiens, UniProt P52333).
T5 construct: purchased DiscoveRx (KinomeScan)
T5 sequence (P52333 1-1124): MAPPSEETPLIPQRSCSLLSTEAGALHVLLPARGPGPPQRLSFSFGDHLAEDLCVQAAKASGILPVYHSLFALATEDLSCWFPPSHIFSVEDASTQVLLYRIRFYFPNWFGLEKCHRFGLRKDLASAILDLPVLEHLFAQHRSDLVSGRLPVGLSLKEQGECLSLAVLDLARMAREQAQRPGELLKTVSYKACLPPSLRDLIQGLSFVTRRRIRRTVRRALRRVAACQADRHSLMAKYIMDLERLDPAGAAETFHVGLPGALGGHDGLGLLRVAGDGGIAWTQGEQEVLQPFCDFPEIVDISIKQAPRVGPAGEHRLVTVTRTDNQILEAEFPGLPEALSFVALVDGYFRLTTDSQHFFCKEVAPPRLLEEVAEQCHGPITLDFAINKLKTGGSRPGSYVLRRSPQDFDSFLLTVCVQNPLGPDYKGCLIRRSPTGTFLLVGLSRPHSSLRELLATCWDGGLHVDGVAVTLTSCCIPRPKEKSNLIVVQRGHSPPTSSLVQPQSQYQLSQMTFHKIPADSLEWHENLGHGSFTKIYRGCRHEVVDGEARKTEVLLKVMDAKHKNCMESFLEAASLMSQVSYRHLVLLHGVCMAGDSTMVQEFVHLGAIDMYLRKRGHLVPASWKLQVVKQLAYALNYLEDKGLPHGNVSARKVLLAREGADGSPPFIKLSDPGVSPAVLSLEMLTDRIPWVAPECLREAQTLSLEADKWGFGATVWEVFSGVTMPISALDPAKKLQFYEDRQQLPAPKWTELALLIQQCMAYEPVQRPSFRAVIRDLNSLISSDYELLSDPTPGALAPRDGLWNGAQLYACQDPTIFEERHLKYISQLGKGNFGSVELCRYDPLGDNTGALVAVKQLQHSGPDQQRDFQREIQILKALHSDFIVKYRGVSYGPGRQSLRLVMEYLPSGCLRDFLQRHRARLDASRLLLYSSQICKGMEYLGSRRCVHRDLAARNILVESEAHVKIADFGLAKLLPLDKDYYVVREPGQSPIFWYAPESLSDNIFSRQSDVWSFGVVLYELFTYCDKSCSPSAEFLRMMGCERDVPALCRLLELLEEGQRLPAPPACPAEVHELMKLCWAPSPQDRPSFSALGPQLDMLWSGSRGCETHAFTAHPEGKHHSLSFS
Particulars: 10 µM, read-out: score (%).

Assay [6] has as its target T6, KinomeScan kinase panel (Homo sapiens, UniProt P53671).
T6 construct: purchased DiscoveRx (KinomeScan)
Particulars: LIMK2, 10 µM; read-out: score (%).

Assay [7] concerns the target T7, KinomeScan kinase panel (Homo sapiens, UniProt Q04912).
T7 construct: purchased DiscoveRx (KinomeScan)
Particulars: MST1R, 10 µM; read-out: score (%).

Assay [8] has as its target T8, KinomeScan kinase panel (Homo sapiens, UniProt P49840).
T8 construct: purchased DiscoveRx (KinomeScan)
Particulars: GSK3A, 10 µM; read-out: score (%).

Assay [9] addresses T9, KinomeScan kinase panel (Homo sapiens, UniProt O94921).
T9 construct: purchased DiscoveRx (KinomeScan)
Particulars: PFTK1, 10 µM.

Assay [10] addresses T10, KinomeScan kinase panel (Homo sapiens, UniProt Q99759).
T10 construct: purchased DiscoveRx (KinomeScan)
T10 sequence (Q99759 1-626): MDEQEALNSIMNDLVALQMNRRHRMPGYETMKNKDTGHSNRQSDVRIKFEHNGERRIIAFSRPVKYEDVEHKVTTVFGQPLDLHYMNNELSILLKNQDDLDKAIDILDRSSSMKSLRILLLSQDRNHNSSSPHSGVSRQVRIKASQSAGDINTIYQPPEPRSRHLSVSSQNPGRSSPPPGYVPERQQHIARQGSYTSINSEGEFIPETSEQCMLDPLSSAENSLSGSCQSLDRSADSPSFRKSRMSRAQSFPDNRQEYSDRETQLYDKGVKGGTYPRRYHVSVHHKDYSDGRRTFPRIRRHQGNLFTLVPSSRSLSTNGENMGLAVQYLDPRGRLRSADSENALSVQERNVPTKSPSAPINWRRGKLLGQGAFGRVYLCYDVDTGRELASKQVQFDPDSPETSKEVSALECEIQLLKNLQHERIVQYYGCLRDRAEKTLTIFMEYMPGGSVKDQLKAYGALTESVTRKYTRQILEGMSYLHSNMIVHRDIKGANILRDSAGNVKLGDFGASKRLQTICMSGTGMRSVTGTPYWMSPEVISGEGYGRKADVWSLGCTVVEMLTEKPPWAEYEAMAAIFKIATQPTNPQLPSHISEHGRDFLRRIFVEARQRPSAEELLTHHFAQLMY
Particulars: MAP3K3, 10 µM; read-out: score (%).

The target in assay [11] is T11, KinomeScan kinase panel (Homo sapiens, UniProt P31751).
T11 construct: purchased DiscoveRx (KinomeScan)
T11 sequence (P31751 whole entry): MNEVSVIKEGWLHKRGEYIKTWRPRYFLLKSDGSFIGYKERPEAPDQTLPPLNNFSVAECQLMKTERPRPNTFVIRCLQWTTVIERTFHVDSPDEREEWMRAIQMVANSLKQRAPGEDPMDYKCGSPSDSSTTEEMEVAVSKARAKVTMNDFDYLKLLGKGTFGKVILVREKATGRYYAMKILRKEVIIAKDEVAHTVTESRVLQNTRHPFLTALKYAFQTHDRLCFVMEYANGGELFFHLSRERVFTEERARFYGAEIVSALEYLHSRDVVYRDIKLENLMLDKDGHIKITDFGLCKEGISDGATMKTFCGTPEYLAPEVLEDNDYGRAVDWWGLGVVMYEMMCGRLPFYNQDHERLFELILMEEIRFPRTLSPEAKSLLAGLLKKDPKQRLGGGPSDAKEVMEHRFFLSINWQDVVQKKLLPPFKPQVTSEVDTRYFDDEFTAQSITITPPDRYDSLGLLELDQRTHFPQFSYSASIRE
Particulars: AKT2, 10 µM; read-out: score (%).

Assay [12] has as its target T12, KinomeScan kinase panel (Homo sapiens, UniProt O00238).
T12 construct: purchased DiscoveRx (KinomeScan)
Particulars: BMPR1B, 10 µM; read-out: score (%).

Assay [13] concerns the target T13, KinomeScan kinase panel (Homo sapiens, UniProt Q9H0K1).
T13 construct: purchased DiscoveRx (KinomeScan)
Particulars: read-out: score (%).

SMILES strings stand for the structures. Like-named read-outs stand apart in the source and are kept apart here. A value given as a limit tells only on which side of the number the result lay.

T2 sequence (P78368 whole entry): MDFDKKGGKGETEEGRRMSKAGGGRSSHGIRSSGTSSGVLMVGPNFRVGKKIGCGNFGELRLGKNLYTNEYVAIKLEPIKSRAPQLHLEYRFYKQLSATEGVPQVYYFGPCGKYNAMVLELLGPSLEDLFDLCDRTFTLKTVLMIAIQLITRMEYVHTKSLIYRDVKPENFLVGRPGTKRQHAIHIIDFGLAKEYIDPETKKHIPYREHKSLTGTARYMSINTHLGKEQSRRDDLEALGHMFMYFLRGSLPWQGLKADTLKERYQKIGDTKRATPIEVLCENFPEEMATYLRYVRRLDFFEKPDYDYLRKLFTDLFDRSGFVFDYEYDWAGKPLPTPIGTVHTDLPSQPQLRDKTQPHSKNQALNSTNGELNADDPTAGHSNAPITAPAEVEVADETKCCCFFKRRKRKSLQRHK
T12 sequence (O00238 14-502): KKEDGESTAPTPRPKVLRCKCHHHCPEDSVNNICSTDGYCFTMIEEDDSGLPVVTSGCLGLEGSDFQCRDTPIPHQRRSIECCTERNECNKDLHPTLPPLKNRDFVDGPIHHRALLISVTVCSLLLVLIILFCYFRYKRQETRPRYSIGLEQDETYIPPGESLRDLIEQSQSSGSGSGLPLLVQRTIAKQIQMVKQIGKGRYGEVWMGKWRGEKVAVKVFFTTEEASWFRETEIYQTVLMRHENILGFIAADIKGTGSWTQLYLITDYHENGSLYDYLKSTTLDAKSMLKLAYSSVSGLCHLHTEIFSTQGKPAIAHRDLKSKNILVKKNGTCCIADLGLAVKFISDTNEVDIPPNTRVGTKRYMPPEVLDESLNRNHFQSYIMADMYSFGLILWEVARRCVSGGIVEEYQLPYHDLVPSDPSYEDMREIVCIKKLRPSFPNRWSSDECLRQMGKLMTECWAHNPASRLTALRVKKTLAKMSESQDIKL
T8 sequence (P49840 whole entry): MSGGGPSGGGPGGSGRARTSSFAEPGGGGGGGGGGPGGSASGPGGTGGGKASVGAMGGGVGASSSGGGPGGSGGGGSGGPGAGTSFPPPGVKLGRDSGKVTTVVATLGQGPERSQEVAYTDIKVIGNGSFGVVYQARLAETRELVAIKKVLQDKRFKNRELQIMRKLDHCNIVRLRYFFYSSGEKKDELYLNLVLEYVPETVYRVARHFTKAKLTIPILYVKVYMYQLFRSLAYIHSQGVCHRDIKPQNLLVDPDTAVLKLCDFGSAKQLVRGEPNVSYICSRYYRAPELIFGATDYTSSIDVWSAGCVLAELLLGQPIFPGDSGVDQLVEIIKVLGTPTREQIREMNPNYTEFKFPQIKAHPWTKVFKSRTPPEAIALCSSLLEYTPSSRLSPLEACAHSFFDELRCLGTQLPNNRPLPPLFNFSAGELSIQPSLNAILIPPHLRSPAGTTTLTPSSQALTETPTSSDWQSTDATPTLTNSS
T1 sequence (P07949 29-1114 M918T): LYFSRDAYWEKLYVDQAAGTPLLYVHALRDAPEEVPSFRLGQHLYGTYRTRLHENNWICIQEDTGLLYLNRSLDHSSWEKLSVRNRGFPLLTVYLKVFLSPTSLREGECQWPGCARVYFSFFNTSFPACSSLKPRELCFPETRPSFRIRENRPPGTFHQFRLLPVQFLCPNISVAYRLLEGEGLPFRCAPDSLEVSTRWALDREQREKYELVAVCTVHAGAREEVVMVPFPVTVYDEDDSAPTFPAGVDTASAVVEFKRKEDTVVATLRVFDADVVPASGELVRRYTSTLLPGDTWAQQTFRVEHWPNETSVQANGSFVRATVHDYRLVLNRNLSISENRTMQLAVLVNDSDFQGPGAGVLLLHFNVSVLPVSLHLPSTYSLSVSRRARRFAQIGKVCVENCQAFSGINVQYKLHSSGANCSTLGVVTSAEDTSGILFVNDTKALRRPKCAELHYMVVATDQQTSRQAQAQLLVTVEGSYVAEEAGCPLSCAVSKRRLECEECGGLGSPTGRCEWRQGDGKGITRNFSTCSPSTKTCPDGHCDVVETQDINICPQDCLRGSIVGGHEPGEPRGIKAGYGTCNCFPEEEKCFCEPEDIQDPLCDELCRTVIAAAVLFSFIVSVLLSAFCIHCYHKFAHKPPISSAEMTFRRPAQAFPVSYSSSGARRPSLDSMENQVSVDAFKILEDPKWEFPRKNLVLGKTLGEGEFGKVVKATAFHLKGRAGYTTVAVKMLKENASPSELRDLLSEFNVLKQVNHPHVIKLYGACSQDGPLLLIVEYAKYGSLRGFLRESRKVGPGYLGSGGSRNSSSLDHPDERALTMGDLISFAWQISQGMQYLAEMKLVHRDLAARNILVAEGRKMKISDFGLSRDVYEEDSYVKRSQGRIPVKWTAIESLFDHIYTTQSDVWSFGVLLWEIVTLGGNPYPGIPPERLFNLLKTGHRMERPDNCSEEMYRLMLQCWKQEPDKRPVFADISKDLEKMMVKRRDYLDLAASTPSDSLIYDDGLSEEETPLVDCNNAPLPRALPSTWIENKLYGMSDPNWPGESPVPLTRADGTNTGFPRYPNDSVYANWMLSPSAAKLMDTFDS
T7 sequence (Q04912 25-1400): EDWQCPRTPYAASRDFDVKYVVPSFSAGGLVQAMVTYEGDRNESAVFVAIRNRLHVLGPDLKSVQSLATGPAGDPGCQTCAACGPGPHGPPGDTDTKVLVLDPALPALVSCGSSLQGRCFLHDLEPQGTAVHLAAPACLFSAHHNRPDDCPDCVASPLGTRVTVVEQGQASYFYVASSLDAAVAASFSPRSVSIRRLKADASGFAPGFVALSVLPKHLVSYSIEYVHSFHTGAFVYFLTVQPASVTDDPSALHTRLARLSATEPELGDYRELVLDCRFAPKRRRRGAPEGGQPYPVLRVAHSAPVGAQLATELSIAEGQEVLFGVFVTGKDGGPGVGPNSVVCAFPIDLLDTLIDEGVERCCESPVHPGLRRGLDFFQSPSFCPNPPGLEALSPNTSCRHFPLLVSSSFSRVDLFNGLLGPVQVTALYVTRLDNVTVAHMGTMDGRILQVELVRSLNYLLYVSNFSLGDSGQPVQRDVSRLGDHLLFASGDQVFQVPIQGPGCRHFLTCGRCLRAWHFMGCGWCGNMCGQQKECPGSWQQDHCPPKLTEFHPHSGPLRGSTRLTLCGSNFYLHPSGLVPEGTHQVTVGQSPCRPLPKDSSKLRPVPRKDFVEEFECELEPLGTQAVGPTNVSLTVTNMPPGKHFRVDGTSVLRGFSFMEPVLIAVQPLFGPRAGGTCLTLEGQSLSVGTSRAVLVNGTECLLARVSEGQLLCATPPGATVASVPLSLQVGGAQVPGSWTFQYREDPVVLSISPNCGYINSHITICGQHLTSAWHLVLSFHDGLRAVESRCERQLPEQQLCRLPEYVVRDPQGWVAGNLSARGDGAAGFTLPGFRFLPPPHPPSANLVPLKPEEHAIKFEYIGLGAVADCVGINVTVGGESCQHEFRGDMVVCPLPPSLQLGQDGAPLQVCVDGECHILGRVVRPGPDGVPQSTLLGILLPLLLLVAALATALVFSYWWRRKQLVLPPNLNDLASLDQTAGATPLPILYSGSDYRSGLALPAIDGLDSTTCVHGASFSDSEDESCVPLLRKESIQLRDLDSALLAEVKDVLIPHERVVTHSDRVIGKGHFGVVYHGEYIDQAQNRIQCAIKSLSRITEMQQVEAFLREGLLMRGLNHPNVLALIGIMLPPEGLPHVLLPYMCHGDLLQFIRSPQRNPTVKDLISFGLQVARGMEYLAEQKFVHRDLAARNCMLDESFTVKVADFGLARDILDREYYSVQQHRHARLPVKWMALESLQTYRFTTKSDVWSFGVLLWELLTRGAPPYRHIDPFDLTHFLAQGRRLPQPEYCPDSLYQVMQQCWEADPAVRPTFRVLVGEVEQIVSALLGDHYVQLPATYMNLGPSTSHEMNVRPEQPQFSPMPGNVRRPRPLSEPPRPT

On to `CCN1CCN(Cc2ccc(NC(=O)c3ccc(C)c(NC(=O)c4cncc(-c5cccs5)c4)c3)cc2C(F)(F)F)CC1` [ALW-II-41-27], for which the remaining binding at 10 µM on KinomeScan kinase panel [1] was 0%; at KinomeScan kinase panel [3], greater than 30%; at KinomeScan kinase panel [4] (ABL1(Q252H)) it was 0.25%; on KinomeScan kinase panel [5] (JAK3(JH1domain-catalytic)), 3.7%; at KinomeScan kinase panel [6], 31%; on KinomeScan kinase panel [7] it was greater than 30%. The remaining binding at 10 µM on KinomeScan kinase panel [8] is greater than 30%; on KinomeScan kinase panel [10], 0.25%; at KinomeScan kinase panel [11], greater than 30%; at KinomeScan kinase panel [12], greater than 30%; on KinomeScan kinase panel [13] (kinase SIK2, 10 µM) it was 13%. The “score (%)” value is 20% on KinomeScan kinase panel [2] and “nb (Hits values higher than 30% were considered negative (no binding: nb))” at KinomeScan kinase panel [9].

Regarding `CCN1CCN(Cc2ccc(NC(=O)c3ccc(C)c(/C=C/c4cnc5[nH]ccc5c4Cl)c3)cc2C(F)(F)F)CC1` [HG-6-63-01, (E)-3-(2-(4-chloro-1H-pyrrolo[2,3-b]pyridin-5-yl)vinyl)-N-(4-((4-ethylpiperazin-1-yl)methyl)-3-(trifluoromethyl)phenyl)-4-methylbenzamide], the remaining binding at 10 µM at KinomeScan kinase panel [1] (RET(M918T), 10 µM) is 0%; on KinomeScan kinase panel [3] it was greater than 30%; at KinomeScan kinase panel [4] (ABL1(Q252H)) it was 0.1%; on KinomeScan kinase panel [5] (JAK3(Kin.Dom.2)) it was 3.5%; on KinomeScan kinase panel [6] it was 6.6%; at KinomeScan kinase panel [7] it was greater than 30%. For the same compound, the remaining binding at 10 µM at KinomeScan kinase panel [8] was greater than 30%; at KinomeScan kinase panel [10], 4%; on KinomeScan kinase panel [11] it was greater than 30%; at KinomeScan kinase panel [12] it was greater than 30%; at KinomeScan kinase panel [13] (SNF1LK2, 10 µM) it was 6.4%. The “score (%)” value at KinomeScan kinase panel [2] and at KinomeScan kinase panel [9] was “nb (Hits values higher than 30% were considered negative (no binding: nb))” throughout.

Regarding `CCN1CCN(Cc2ccc(NC(=O)c3ccc(C)c(C#Cc4cccnc4)c3)cc2C(F)(F)F)CC1` [XMD15-44], the remaining binding at 10 µM at KinomeScan kinase panel [1] (kinase RET(M918T), 10 µM) is 0%; on KinomeScan kinase panel [3], greater than 30%; at KinomeScan kinase panel [4] (ABL1(Q252H)-nonphosphorylated), 6.4%; at KinomeScan kinase panel [4] (ABL1(Q252H)-phosphorylated), 0.7%; at KinomeScan kinase panel [5] (JAK3(JH1domain-catalytic)), 2.3%; on KinomeScan kinase panel [6] it was 11%. Moreover, the remaining binding at 10 µM on KinomeScan kinase panel [7] is greater than 30%; on KinomeScan kinase panel [8], greater than 30%; at KinomeScan kinase panel [10] it was 1.4%; on KinomeScan kinase panel [11], 30%; on KinomeScan kinase panel [12], greater than 30%; on KinomeScan kinase panel [13] (kinase SIK2, 10 µM), 21%. In addition, the “score (%)” value on KinomeScan kinase panel [2] is “nb (Hits values higher than 30% were considered negative (no binding: nb))”; on KinomeScan kinase panel [9], 0.85%.
